# Reference: patent publication US11590116B2 (THERAVANCE BIOPHARMA R&D IP, LLC, priority 2019, dated 2023)
# Experiments:
# [1] = target: T1, recombinant human ALK5 (TGF-βR1) protein (Homo sapiens, UniProt P36897); test: Biochemical ALK5 (TGF-βR1) assay to measure pKi (LANCE Ultra ULight kinase assay); conditions: apparent pKi from pIC50 by Cheng-Prusoff, read-out: ALK5 pKi (converted)
# T1 construct: purchased Life Technologies PR9075A
# T1 sequence (P36897 34-503): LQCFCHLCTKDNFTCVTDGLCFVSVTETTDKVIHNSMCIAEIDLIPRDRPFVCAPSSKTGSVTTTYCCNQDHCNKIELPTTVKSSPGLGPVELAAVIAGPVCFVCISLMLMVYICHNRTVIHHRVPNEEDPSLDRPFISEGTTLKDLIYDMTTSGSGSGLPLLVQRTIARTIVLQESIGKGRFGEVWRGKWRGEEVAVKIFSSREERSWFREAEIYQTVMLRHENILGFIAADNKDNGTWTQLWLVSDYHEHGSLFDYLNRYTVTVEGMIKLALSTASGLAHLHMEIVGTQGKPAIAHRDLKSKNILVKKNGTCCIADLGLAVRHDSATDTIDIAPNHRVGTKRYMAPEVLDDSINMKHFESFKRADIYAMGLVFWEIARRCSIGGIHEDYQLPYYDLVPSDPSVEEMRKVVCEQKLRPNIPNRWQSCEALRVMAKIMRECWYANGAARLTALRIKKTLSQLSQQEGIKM
# Procedure: The assays were performed in a 384-well plate (24 columns×16 wells/rows). An Echo® 550 Liquid Handler (Labcyte) was used to prepare various intermediate concentrations of compounds of the present disclosure in 100% DMSO. From the intermediate concentrations, a range of concentrations (from 10 μM to 25 pM corresponding to volumes up to 105 nL) were prepared and ejected into a final assay plate to be used to create individual dose response curves for each of the subject compounds. To a separate column within the assay plate, 105 nL of DMSO in each well was used to establish a maximum assay signal.
# With a multidrop dispenser, 8 μL of enzyme mixture (1.25× final) was added to each well. […] The plate was then sealed with an adhesive seal and allowed to equilibrate for 60 minutes at room temperature.
# Next, 2 μL of 125 μM ATP (5× final, 125 μM ATP prepared in assay buffer with 2 mM DTT) was added to the incubated mixtures, covered with a MicroClime® Environmental Lid (Product No. LLS-0310, Labcyte) and immediately transferred to 37° C. The reactions were allowed to proceed at 37° C. for 60 minutes before terminating with the addition of 10 μL of detection antibody (LANCE® (lanthanide chelate excite) Ultra Europium-anti-phospo-DNA Topoisomerase 2-alpha (Thr1342)) in detection mixture (12 mM EDTA, 4 nM detection antibody prepared in detection buffer (50 mM Tris-HCl, 150 mM NaCl, 0.5% BSA (Fraction V), pH 7.0)) at room temperature. The plate was then read on a Perkin Elmer EnVision Plate Reader using europium specific reader settings with excitation and emission wavelengths set to 320 or 340 nm and 665 nm, respectively.
# For dose-response analyses, percent inhibition versus compound concentrations were plotted, and pIC50 values were determined from a 4-parameter robust fit model with GraphPad Prism V5 Software (GraphPad Software, Inc., La Jolla, Calif.). This model obtains pIC50 values by fitting the sigmoidal dose-response (variable slope) equation to the data. Results were expressed as pIC50 (negative logarithm of IC50) and subsequently converted to pKi (negative logarithm of dissociate constant, K) using the Cheng-Prusoff equation. The higher the value of pKi (lower value of Ki), the greater the inhibition of ALK5 activity.
# [2] = system: TGF-β-stimulated SMAD3 phosphorylation in BEAS-2B cells; test: Cellular ALK5 potency assay, inhibition of TGF-β stimulated pSMAD3 formation in BEAS-2B cells; assay type: cell-based; conditions: Homo sapiens; inhibition of TGF-β stimulated pSMAD3 formation, BEAS-2B cells; read-out: BEAS2B pIC50 (converted)
# Procedure: The potency of compounds of the present disclosure for inhibition of TGF-β-stimulated SMAD3 phosphorylation was measured in BEAS-2B cells, a human lung epithelial cell line. TGF-β signals through activin receptor-like kinase 5 (ALK5) immediately prior to SMAD3 phosphorylation.
# BEAS-2B cells were grown using 50% DMEM (Life Technologies) and 50% F-12 (Life Technologies) media, supplemented with 10% Fetal Bovine Serum (ATCC), 25 mM HEPES (Life Technologies), and 1× Pen-Strep (Life Technologies). Cells were cultured in a humidified incubator set at 37° C., 5% CO2, and trypsonized using 0.25% Trypsin with 0.5% polyvinylpyrrolidone (PVP).
# For the assay, BEAS-2B cells were seeded at 7,500 cells/well (25 μL/well) in a 384-well plate and cultured overnight. Before dosing, growth media was aspirated and the wells were rinsed with HBSS Buffer (HBSS with Calcium and Magnesium, Life Technologies) supplemented with 25 mM HEPES (Life Technologies) and 1% Bovine Serum Albumin (Roche). Compounds were serially diluted in DMSO, then further diluted with supplemented HBSS Buffer (50 μL/well) to create a compound plate 3× of the final assay concentration, at 0.3% DMSO. The diluted compounds were then added to the cells (8 μL/well) and incubated at 37° C., 5% CO2 for 1 hour. After the compound incubation, TGF-β (R&D Systems) reconstituted in supplemented HBSS Buffer was added to the cells ([…], final concentration 10 ng/mL) and incubated for a further 30 minutes, after which the cells were immediately lysed with AlphaLISA lysis buffer (PerkinElmer). AlphaLISA Acceptor and Detector beads (PerkinElmer) were added 2 hours apart, then incubated overnight to be read the next day. The potency of the compound was determined through analysis of dose-dependent quantified changes in pSMAD3 signal from baseline (non-compound treated TGF-β stimulated cells). Data are expressed as pIC50 (negative decadic logarithm IC50) values.
Ki [1] [nM],Compound,IC50 [2] [nM]
0.398 to 3.16,"Cc1cccc(-c2[nH]cnc2-c2ccc3nccc(C(=O)OCCN4CCNCC4)c3c2)n1 [Compound 1121, 2-piperazin-1-ylethyl 6-[5-(6-methyl-2-pyridyl)-1H-imidazol-4-yl]quinoline-4-carboxylate]",200 to 1260
0.0398 to 0.316,"Cc1cccc(-c2[nH]cnc2-c2ccc3ncc(C(=O)OCCCN4CCC5(CC4)CNC5)cc3c2)n1 [Compound 904, 3-(2,7-diazaspiro[3.5]nonan-7-yl)propyl 6-(5-(6-methylpyridin-2-yl)-1H-imidazol-4-yl)quinoline-3-carboxylate]",200 to 1260
0.0398 to 0.316,"Cc1nc(-c2nc3ccccn3c2-c2ccc3ncc(N4CCC(N(C)C)C4)cc3c2)ccc1F (racemic) [Compound 544, rac-(3S)-1-[6-[2-(5-fluoro-6-methyl-2-pyridyl)imidazo[1,2-a]pyridin-3-yl]-3-quinolyl]-N,N-dimethyl-pyrrolidin-3-amine]",25.1 to 158
0.0398 to 0.316,"CNCC1CN(c2cnc3ccc(-c4c[nH]nc4-c4cccc(C)n4)nc3c2)C1 [Compound 672, N-methyl-1-[1-[6-[3-(6-methyl-2-pyridyl)-1H-pyrazol-4-yl]-1,5-naphthyridin-3-yl]azetidin-3-yl]methanamine]",25.1 to 158
< 0.0316,"CNCCn1cc(-c2cnc3ccc(-c4c(-c5cccc(C)n5)nnn4C)cc3c2)cn1 [Compound 628, N-methyl-2-(4-(6-(1-methyl-4-(6-methylpyridin-2-yl)-1H-1,2,3-triazol-5-yl)quinolin-3-yl)-1H-pyrazol-1-yl)ethan-1-amine]",25.1 to 158
0.0398 to 0.316,"Cc1cccc(-c2[nH]cnc2-c2ccc3ncc(-c4ccc(C(=O)OC5CNC5)cn4)cc3c2)n1 [Compound 1027, azetidin-3-yl 6-[6-[5-(6-methyl-2-pyridyl)-1H-imidazol-4-yl]-3-quinolyl]pyridine-3-carboxylate]",25.1 to 158
< 0.0316,"Cc1cccc(-c2n[nH]cc2-c2ccc3ncc(-c4cn5c(n4)CNCC5)cc3n2)n1 [Compound 75, 2-(3-(6-Methylpyridin-2-yl)-1H-pyrazol-4-yl)-7-(5,6,7,8-tetrahydroimidazo[1,2-a]pyrazin-2-yl)-1,5-naphthyridine]",25.1 to 158
0.0398 to 0.316,"COC(=O)[C@@H]1CCN(CCNc2cnc3ccc(-c4nc[nH]c4-c4cccc(C)n4)cc3c2)C1 [Compound 729, methyl (3R)-1-[2-[[6-[5-(6-methyl-2-pyridyl)-1H-imidazol-4-yl]-3-quinolyl]amino]ethyl]pyrrolidine-3-carboxylate]",25.1 to 158
0.398 to 3.16,"Cc1cccc(-c2n[nH]cc2-c2ccc3nccc(NC(=O)CCN4CCOCC4)c3n2)n1 [Compound 841, N-[6-[3-(6-methyl-2-pyridyl)-1H-pyrazol-4-yl]-1,5-naphthyridin-4-yl]-3-morpholino-propanamide]",25.1 to 158
0.398 to 3.16,"Cc1cccc(-c2n[nH]cc2-c2ccc3nccc(C(=O)NCCCN4CCOCC4)c3n2)n1 [Compound 803, 6-[3-(6-methyl-2-pyridyl)-1H-pyrazol-4-yl]-N-(3-morpholinopropyl)-1,5-naphthyridine-4-carboxamide]",
,"CNCCn1cc(-c2cnc3ccc(-c4c[nH]nc4-c4ccc(F)c(C)n4)nc3c2C)cn1 [Compound 870, 2-[4-[6-[3-(5-fluoro-6-methyl-2-pyridyl)-1H-pyrazol-4-yl]-4-methyl-1,5-naphthyridin-3-yl]pyrazol-1-yl]-N-methyl-ethanamine]",25.1 to 158
0.398 to 3.16,"Cc1cccc(-c2n[nH]cc2-c2ccc3nccc(C(=O)NCN4CCOCC4)c3n2)n1 [Compound 807, 6-[3-(6-methyl-2-pyridyl)-1H-pyrazol-4-yl]-N-(morpholinomethyl)-1,5-naphthyridine-4-carboxamide]",
3.98 to 31.6,"Cc1cccc(-c2n[nH]cc2-c2ccc3nccc(C(=O)NCCN4CCN(C(C)C)CC4)c3n2)n1 [Compound 808, N-[2-(4-isopropylpiperazin-1-yl)ethyl]-6-[3-(6-methyl-2-pyridyl)-1H-pyrazol-4-yl]-1,5-naphthyridine-4-carboxamide]",
,"Cc1nc(-c2n[nH]cc2-c2ccc3ncc(-c4cnn(C5CC(N)C5)c4)cc3n2)ccc1F (centres unmarked) [Compound 647, 3-[4-[6-[3-(5-fluoro-6-methyl-2-pyridyl)-1H-pyrazol-4-yl]-1,5-naphthyridin-3-yl]pyrazol-1-yl]cyclobutanamine]",25.1 to 158
0.0398 to 0.316,"Cc1cccc(-c2[nH]cnc2-c2ccc3ncc(N4CCC(NCCSC(CCO)C(=O)O)C4)cc3c2)n1 (centres unmarked) [Compound 720, 4-hydroxy-2-[2-[[1-[6-[5-(6-methyl-2-pyridyl)-1H-imidazol-4-yl]-3-quinolyl]pyrrolidin-3-yl]amino]ethylsulfanyl]butanoic acid]",
3.98 to 31.6,"Cc1cccc(-c2[nH]ncc2-c2ccc3nccc(C(=O)O[C@H]4CC[C@](C)(N)CC4)c3c2)n1 [Compound 1135, (4-amino-4-methyl-cyclohexyl) 6-[5-(6-methyl-2-pyridyl)-1H-pyrazol-4-yl]quinoline-4-carboxylate]",
0.0398 to 0.316,"CCOC(=O)[C@H](C)NP(=O)(OCc1cnc2ccc(-c3cn[nH]c3-c3cccc(C)n3)nc2c1)Oc1ccccc1 (stereo partly drawn) [Compound 464, ethyl (2S)-2-[[[6-[5-(6-methyl-2-pyridyl)-1H-pyrazol-4-yl]-1,5-naphthyridin-3-yl]methoxy-phenoxy-phosphoryl]amino]propanoate]",
0.0398 to 0.316,"Cc1cccc(-c2[nH]cnc2-c2ccc3ncc(-c4csc(C(=O)OC[C@H]5CC[C@H](N)CC5)c4)cc3c2)n1 [Compound 1245, (4-aminocyclohexyl)methyl 4-[6-[5-(6-methyl-2-pyridyl)-1H-imidazol-4-yl]-3-quinolyl]thiophene-2-carboxylate]",
0.0398 to 0.316,"Cc1cccc(-c2[nH]cnc2-c2ccc3ncc(-c4ncc(C(=O)OC5CCNCC5)s4)cc3c2)n1 [Compound 1022, piperidin-4-yl 2-(6-(5-(6-methylpyridin-2-yl)-1H-imidazol-4-yl)quinolin-3-yl)thiazole-5-carboxylate]",
,"Cc1nc(-c2n[nH]cc2-c2ccc3ncc(-c4cnn(C5CCC(N)CC5)c4)cc3n2)ccc1F (centres unmarked) [Compound 459, 4-[4-[6-[3-(5-fluoro-6-methyl-2-pyridyl)-1H-pyrazol-4-yl]-1,5-naphthyridin-3-yl]pyrazol-1-yl]cyclohexanamine]",25.1 to 158
